Data as given in patent US9072730B2, “Method of improving cognitive functions in individuals with down syndrome and/or alzheimer's disease” (The Board of Trustees of the Leland Stanford Junior …, priority 2009, dated 2015).
“Also recorded” adds a separate entry of the source.

Tests used:
[1] = tested on: acute hippocampal slices; test: Evoked field potentials in acute hippocampal slices (dentate gyrus); set-up: species or system mouse
Experimental: Three and 6-month-old 2N and Ts65Dn mice were anesthetized with isoflurane before decapitation. The brain was quickly removed and immersed for 2-3 min in ice-cold artificial CSF (ACSF) [containing (in mM): 119 NaCl, 2.5 Kcl, 2.5 CaCl2, 1.3 MgSO4, 1 NaH2PO4, 26 NaHCO3, and 10 glucose], osmolarity 310, continuously bubbled with 95% 02 and 5% CO2, pH 7.4. The HC was extracted and cut in ice-cold ACSF with a vibratome (Leica 1000; Leica, Nussloch, Germany) into 350-μm-thick transverse slices, which were allowed to recover in oxygenated ACSF at 32° C. for 30 min, and then at room temperature for an additional 1-10 hr before experimental recordings. Slices were transferred into the recording chamber and superfused with ACSF at a constant rate of 2.5 ml/min at a temperature of 32° C. Recording electrodes were made of borosilicate glass capillaries (1B150F, World Precision Instruments, Sarasota, Fla.) and were filled with 2M NaCl (resistance […]). Mono polar stimulating electrode was maid of Pt/Ir wires with diameter 25.4 μm (PTT0110, World Precision Instruments, Sarasota, Fla.) and had 100-μm-long exposed tip. The stimulating electrode was inserted under visual control perpendicular to the slice surface into the middle molecular layer (MML), and the recording electrode into the granule cell layer of the DG upper blade. The distance between the electrodes was 250-300 μm. Testing stimuli evoked field responses with population spike amplitudes 65-75% of maximum. The amplitude of the population spike was measured as follows: a line was drawn at the base of the population spike connecting the first and second peaks of the field response, a second line was drawn at the peak of the population spike (i.e., at the peak of the downward deflection), and at the peak of the spike, a line was drawn vertically between these two lines, thus giving the amplitude of the population spike. The magnitude of the fEPSP was measured as the initial slope of the linear part of the fEPSP, which occurred 0.1-1 ms after the presynaptic volley. […]

[2] = tested on: Ts65Dn mice; test: Contextual and tone-cued fear conditioning test; type: in vivo, mouse
Experimental: Contextual and tone-cued fear conditioning tests were performed using the Fear Conditioning Video Tracking System (Med-Associates Inc., St. Albans, Vt.). To reduce the stress, each mouse was handled for 5 days. After that, the mice underwent three days of Training day, Tone-Cued in novel context testing day, and Contextual testing day. In the first day, mice went through the Training session. Prior to conditioning, each mice had 3 min to explore the Test Chamber (baseline activity and then they received five tone-shock pairings). The shock (0.5 mA, 50 Hz, 2 sec) delivered after 18 sec from the end of the tone (70 dB, 2 kHz, 20 sec). Therefore, an empty trace interval interposed between the tone and the shock in each conditional stimulus-unconditional stimulus pairing. On the second day (Tone-cued testing day), mice were placed in the novel context (new olfactory and visual cues) for 3 min and subsequently were presented three tone presentations (same as the Training Day) without any shocks. On the last day of the experiment, mice were placed in the context similar to the Training Day for 5 min without any tones or shocks. The effect of L-DOPS on fear conditioning was investigated by treating Ts65Dn mice and their controls 5 hours before the start of each test. The treated mice underwent three days of Training day, Cued testing day and Contextual testing day. L-DOPS was diluted (20 mg/ml) in 0.2M HCL containing 2 mg/ml ascorbic acid. The pH was neutralized with 10M NAOH just before the injection. To counter the peripheral effects of L-DOPS, S-(−) carbidopa was used. Carbidopa was diluted in the same solution (2.5 mg/ml) as L-DOPS. Two groups (10 pairs each) of 5-6-month-old male Ts65Dn and 2N mice were either injected with carbidopa (2.5 mg/ml) or a combination of 20 mg/ml L-DOPS and 2.5 mg/ml carbidopa (50 μl/g subcutaneously) five hours before the start in all 3 days of the experiment. Six-months-old 2N (CD=13, CD+L-DOpS=11) and Ts65Dn (CD=10, CD+L-DOPS=9) mice were used for this study. The effect of β1-partial agonist (xamoterol) on Ts65Dn mice and their controls […]. Xamoterol hemifumarate (Tocris Bioscience, Ellisville, Mich.) was freshly diluted in saline. Two groups of 9-month-old (19 2N and 15 Ts65Dn) mice were subcutaneously injected either with xamoterol (3 mg/kg) or saline (10 ml/kg) exactly […] before all 3 days of fear conditioning test. Nine-months-old 2N (saline=4, xamoterol=8), and Ts65Dn (saline=4, xamoterol=6) mice were used for this study. The data tested using one-way analysis of variance (ANOVA) between the genotypes. The significance of genotype and treatment effects was confirmed by a non-parametric Mann-Whitney U-tests.

[3] = tested on: Ts65Dn mice; test: Nesting behavior analysis; type: in vivo, mouse
Experimental: The nesting experiment was performed using 10 pairs of 6-month-old male Ts65Dn (CD=10, CD+L-DOPS=10) and 2N (CD=10, CD+L-DOPS=10) mice. The nesting behavior was analyzed in three different periods (sham, drug and no treatment): Each mouse was placed in individual mouse cages for 4 days. On day 5, each mouse was injected subcutaneously at 1 PM with 50 μl/g of (2.5 mg/ml) carbidopa (Sigma) and returned to their individual cages. The next day, mice were injected the same amount of carbidopa as the day before at 1 PM. At 6 PM, the mice were transferred to a rat cage and one nestlet was placed in each cage. Next morning, the nesting was scored by three investigators blind to the genotype. This was followed by weighing the remaining nestlets. Following the sham experiment, mice were returned to their individual mouse cages without any nestlets for 6 days. On day 7, the mice were injected subcutaneously (50 μl/g) of a combination of (20 mg/ml) L-DOPS and carbidopa (2.5 mg/ml) at 1 PM and were returned to their individual mouse cages. Next day the injection was repeated at 1 PM and at 6 PM the mice were transferred to clean rat cage with one nestlet. The quality and quantity of nesting was scored the morning after. The mice were kept in individual cages for two weeks to minimize the effects of L-DOPS treatment on nesting. […] The quality and quantity of nesting was scored the morning after.

[4] = Norepinephrine and L-DOPS determination in tissue by UV-HPLC; type: in vivo, mouse
Experimental: Mice were deeply anesthetized using sodium pentobarbital (200 mg/kg i.p.) and brains were extracted immediately. The right hippocampal region dissected out on ice, weighed, and frozen shortly after. The rest of the right hemisphere was also weighed and collected. For homogenization, 1 ml of ice-cold 0.05 M phosphoric acid (Sigma) with 10 μl of […] of 3,4-Dihydrxybenzylamine hydrobromide (DHBA; Sigma) used as an internal standard. The tissue samples were sonicated for 3 seconds on ice. The resulting homogenates were centrifuged at 15,000 g for 15 minutes at 4° C. The resulting supernatant was transferred to a conical tube containing 1 ml of 3M tris (pH: 8.6) with 90 mg acid-washed aluminum oxide (Sigma). The mixture was rotated at 4° C. overnight. The alumina was centrifuged for 10 seconds, and washed briefly with 6 mM tris (pH: 8.6) and 3 changes of water (HPLC grade). After final centrifugation, the resulting precipitate was mixed with 1.8 ml of 0.05M H3PO4 (Sigma, puriss>99%) for 30 minutes at 4° C. The solution was filtered with a 0.2 μm filter and used for UV-based HPLC. 4.5 months-old (N=4 pairs of 2N and Ts65Dn) and 18 months (2N; N=8 and Ts65Dn; N=6) were used for this study.
A UV-HPLC machine (Varian, Chicago) equipped with an auto sampler and 2 pumps was used for this study. The machine was connected to a Varian column (Pursuit PFP, 150 mm×4.6 mm, 5 μm, A3050150×046) optimized for catecholamine measurements in aqueous conditions. The mobile phase was consisted of 60% 0.1M citric acid (Sigma) and 40% 0.1M Na2HPO4 both in 0.3 mM HPLC-grade sodium octyl sulfate salt (Sigma) (7). The mobile phase was degassed using 0.2 μm filter and refreshed every week. The flow rate was set at 1.0 ml/min at room temperature and the detection was performed at 270 nm. To achieve maximum performance, the mobile phase was pumped at 0.1 ml/min flow the night before the experiment. The column was washed thoroughly with 50% methanol after each experiment. To calculate the amounts of catecholamines, the height of the peak generated by DHBA, NE, and L-DOPS were measured using Variant software. […]

[5] = based on the literature; cited from earlier work
[6] = subcutaneous administration; cited from earlier work

CC(C)NCC(O)c1ccc(O)c(O)c1 (stereo not drawn) [ISO]
effect on slope of fEPSPs, Ts65Dn versus 2N ([1]; 6-month-old mice, stimulation of middle molecular layer, recording in granule cell layer): stronger effects on slope of fEPSPs in Ts65Dn than 2N mice
recorded response 30 min after application, Ts65Dn versus 2N ([1]; ISO 10 μM, 10 min, slices of 6-month old Ts65Dn and age-matched 2N): much stronger response in Ts65Dn than 2N mouse
change in population spike amplitude of fEPSPs ([1]; ISO 10 μM, 3- and 6-months-old 2N and Ts65Dn mice): significant increase in population spike amplitude
duration of enhancement of population spike amplitude ([1]; ISO 10 μM, 3-month-old 2N mice): at least 30 min
duration of increase of population spike amplitude ([1]; ISO 10 μM, 6 months old mice): > 1 h
slope and amplitude of excitatory postsynaptic potentials (EPSPs) ([1]; slices at age 3 months and 6 months, 2N and Ts65Dn mice): increase in both the slope and amplitude
EPSP responses in Ts65Dn slices compared with 2N ([1]; slices at age 6 months): consistently more robust

N[C@H](C(=O)O)[C@H](O)c1ccc(O)c(O)c1 [L-DOPS, L-threo-3,4-dihydroxyphenylserine]
contextual memory / contextual learning (freezing on contextual day) ([2]; 6-month-old Ts65Dn mice, 20 mg/ml L-DOPS + 2.5 mg/ml carbidopa, 50 μl/g s.c., 5 hours before each test, control carbidopa alone): significant improvement in contextual memory; also recorded: found to restore contextual learning; also recorded: able to alleviate cognitive failure; also recorded: contextual learning failure was reversed; also recorded: acted to restore contextual learning
difference in freezing between 2N and Ts65Dn mice in contextual test ([2]; L-DOPS + carbidopa treated 2N vs Ts65Dn, One-way ANOVA p=0.5247): restored fully the difference in freezing; also recorded: no significant difference between the two groups
freezing measured on a minute-by-minute basis in contextual test ([2]; L-DOPS + carbidopa treated Ts65Dn mice): increased freezing following the first minute
reduction of the deficiency in Ts65Dn mice ([2]; L-DOPS treatment versus no treatment): 80%
how much less Ts65Dn mice remembered than their controls after treatment ([2]; after treatment with L-DOPS, without treatment 44% less): 8%
nesting behavior ([3]; drug period: L-DOPS 20 mg/ml + carbidopa 2.5 mg/ml, 50 μl/g s.c., p=0.0245): improved nesting; also recorded: significant improvement in the nesting behavior
nesting behavior after cessation of treatment ([3]; no treatment (washout) period of two weeks, p=0.0121): again showed poor nesting behavior; also recorded: vanished 2 weeks later
NE levels in the HC of Ts65Dn mice relative to 2N mice ([4]; after L-DOPS 1 mg/g with carbidopa 0.125 mg/g): 96%
L-DOPS levels in tissues ([4]; six hours after administration, 2N and Ts65Dn mice, L-DOPS 1 mg/g with carbidopa 0.125 mg/g): present in all tissues, including brain
L-DOPS tissue levels, difference between genotypes ([4]; six hours after administration, 2N vs Ts65Dn, p=0.4894): no difference between genotypes
dose used safely in humans [5]: up to 1 gram per day
time to maximum brain NE levels [6]: ≤ 5 h

O=C(NCCNCC(O)COc1ccc(O)cc1)N1CCOCC1 (stereo not drawn) [xamoterol]
contextual learning / contextual discrimination (freezing on contextual day) ([2]; 9-month-old Ts65Dn mice, xamoterol 3 mg/kg s.c. 1 hour before each test, control saline): restored failed contextual learning; also recorded: found to restore contextual learning; also recorded: contextual learning failure was reversed; also recorded: acted to restore contextual learning; also recorded: significant improvement; also recorded: significant restoration of contextual discrimination
difference between 2N and Ts65Dn mice in percent of freezing on contextual day ([2]; xamoterol treated 2N vs Ts65Dn, ANOVA F=0.392, p=0.844): no longer any differences were found
